Experiments:
[1] = system: Trichophyton mentagrophytes 4329; test: In vitro antifungal activity, agar dilution method (MIC); type: cell-based; conditions: yeast morphology agar + 1/15M phosphate buffer (pH 7.0), 10^7 cells/ml, 28°C, 60 hrs
[2] = system: Aspergillus fumigatus IAM 2034; test: as above; type: cell-based; conditions: yeast morphology agar + 1/15M phosphate buffer (pH 7.0), 10^6 cells/ml, 28°C, 40 hrs
[3] = Acute toxicity in mice after a single intravenous dose; type: in vivo
Protocol: (§1) Pradimicins T1 and T2 were evaluated for in vivo efficacy against a Candida albicans A9540 systemic infection in male ICR mice (20-24 g body weight) as described by Oki etal. in water-soluble pradimicin derivatives, synthesis and antifungal evaluation of N,N,-dimethyl pradimicins, J. Antibiotics 43: 1230-1235, 1990. Five mice at each dose level were challenged intravenously with ten times the 50% lethal dose of the pathogen suspended in saline. Antibiotics were intravenously administered once immediately after the fungal challenge. Infection control animals (n=10) died from 7 to 12 days. The 50% protective dose (PD50) was calculated from the survival rate 20 days after the fungal infection. The acute toxicity of pradimicins T1 and T2 was determined in mice after a single intravenous dose.

Candida albicans A9540 [4] = test: In vivo efficacy against systemic infection in mice; conditions: male ICR mice; C. albicans A9540 systemic infection; single intravenous dose immediately after challenge; survival rate 20 days after infection
Protocol: as §1

[5] = system: Cryptococcus neoformans D49; test: In vitro antifungal activity, agar dilution method (MIC); type: cell-based; conditions: yeast morphology agar + 1/15M phosphate buffer (pH 7.0), 10^6 cells/ml, 28°C, 40 hrs
Candida albicans A9540 [6] = test: as above; type: cell-based; conditions: yeast morphology agar + 1/15M phosphate buffer (pH 7.0), 10^6 cells/ml, 28°C, 40 hrs
[7] = system: Cryptococcus neoformans IAM 4514; test: as above; type: cell-based; conditions: yeast morphology agar + 1/15M phosphate buffer (pH 7.0), 10^6 cells/ml, 28°C, 40 hrs
[8] = system: Candida albicans ATCC 32354 (B311); test: as above; type: cell-based; conditions: yeast morphology agar + 1/15M phosphate buffer (pH 7.0), 10^6 cells/ml, 28°C, 40 hrs
[9] = system: Candida albicans 83-2-14 (Juntendo); test: as above; type: cell-based; conditions: yeast morphology agar + 1/15M phosphate buffer (pH 7.0), 10^6 cells/ml, 28°C, 40 hrs
[10] = system: Saccharomyces cerevisiae ATCC 9763; test: as above; type: cell-based; conditions: yeast morphology agar + 1/15M phosphate buffer (pH 7.0), 10^6 cells/ml, 28°C, 40 hrs

| Substance | MIC [1] | MIC [2] | LD50 [3] | PD50 (Candida albicans A9540 [4]) | MIC [5] | MIC (Candida albicans A9540 [6]) | MIC [7] | MIC [8] | MIC [9] | MIC [10] |
| --- | --- | --- | --- | --- | --- | --- | --- | --- | --- | --- |
| Pradimicin T1 | 6.3 μ g/ml | 6.3 μ g/ml |  |  |  |  |  |  |  |  |
| Pradimicin T2 | 50 μ g/ml | >100 μ g/ml |  |  |  |  |  |  |  |  |
| Amphotericin B | 0.8 μ g/ml | 0.8 μ g/ml | 4.5 mg/kg | 0.2 mg/kg | 0.4 µg/mL | 0.4 µg/mL | 0.4 µg/mL | 0.4 µg/mL | 0.4 µg/mL | 0.4 µg/mL |
| 11-O-dexylosylpradimicin T1 [11-O-Dexylosyl-pradimicin T1] | 12.5 μ g/ml | 25 μ g/ml |  |  |  |  |  |  |  |  |

— patent EP0581652A1, “Pradimicins T1 and T2 and 11-0-dexylosylpradimicin T1, new members of the pradimicin family of antibiotics” (priority 1992, dated 1994)
